Data reported in US20260297031A1, “HYDROXYLAMINE-BASED BCR-ABL1 INHIBITORS FOR TREATMENT OF CANCER” (University of Georgia Research Foundation, Inc., priority 2023, published 2026).
“Also recorded” adds a separate entry of the source.

How the values were obtained:
[1] = system: P-glycoprotein (P-gp) and/or breast cancer resistance protein (BCRP); conditions: cited from earlier work
[2] = Metabolic stability in human hepatocytes; conditions: for remaining at 0.5 min / remaining at 0.5 h / remaining at 1 h / remaining at 2 h: hepatocytes
Method: Metabolic Stability in Hepatocytes (Independently Performed by Pharmaron Inc., Ninqbo, CN)
After thawing was complete, hepatocytes were transferred into a 50 mL conical tube containing thawing medium and the tube was then placed into a centrifuge and spun at 100 g for 10 min. […] Using AO/PI staining, cells were counted to determine the viable cell density. […] Subsequently, 2 μL of the 100 μM test compounds or control compound solutions was transferred into the respective wells of the 96-well non-coated plate to start the reaction. […] Aliquots of 100 μL of the supernatant were then diluted by 100 μL of ultra-pure water, and the mixture was analyzed by LC-MS/MS.
All calculations were carried out using Microsoft Excel. Peak areas were determined from extracted ion chromatograms. The in-vitro half-life (t1/2) of parent compound was determined by regression of the percent parent disappearance vs. time curve.

cSRC = cSRC (Homo sapiens, UniProt P12931); test: KinaseProfiler radiometric kinase assay, cSRC wt; type: biochemical; conditions: for IC50: [ATP] = 10 μM, mean of n = 2
Chain of cSRC (P12931 whole entry): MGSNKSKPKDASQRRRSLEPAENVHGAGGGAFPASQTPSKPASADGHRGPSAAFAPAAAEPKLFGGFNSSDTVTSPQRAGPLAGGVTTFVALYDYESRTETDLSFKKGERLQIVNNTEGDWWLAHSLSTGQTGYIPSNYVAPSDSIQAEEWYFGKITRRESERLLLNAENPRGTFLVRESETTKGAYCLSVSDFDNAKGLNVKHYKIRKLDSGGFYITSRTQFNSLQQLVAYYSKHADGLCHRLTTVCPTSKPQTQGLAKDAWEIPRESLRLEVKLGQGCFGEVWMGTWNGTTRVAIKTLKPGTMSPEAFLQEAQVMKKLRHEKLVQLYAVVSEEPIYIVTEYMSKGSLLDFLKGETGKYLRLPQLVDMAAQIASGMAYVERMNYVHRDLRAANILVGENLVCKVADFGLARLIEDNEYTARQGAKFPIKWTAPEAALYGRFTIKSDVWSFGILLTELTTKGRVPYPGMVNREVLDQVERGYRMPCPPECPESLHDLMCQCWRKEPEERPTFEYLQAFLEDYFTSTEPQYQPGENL

[3] = Plasma protein binding by equilibrium dialysis, human plasma; type: in vitro ADME; conditions: human plasma; for % Unbound: 360 min, 5 µM
Method: Plasma Protein Binding by Equilibrium Dialysis (Independently Performed by Pharmaron Inc., Ninqbo, CN)
Initially, 1 mM solutions of test compounds and the control compound (Ketoconzaole) were prepared in DMSO. After this, dialysis membranes were soaked in ultrapure water for 60 min to separate strips, followed by 20% aq. ethanol for 20 min, and finally in a dialysis buffer for 20 min. […] After this, 597 μL of blank plasma solution followed by 3 μL of the working solutions of either test compounds or control compound were added to a new plastic plate or separate plastic tube and the solutions were vortexed at 1,000 rpm for 2 min. Immediately after this, 50 μL of spiked plasma solution suspension was transferred to a 96-well plate to act as T=0 control. The remaining samples were treated in the same manner, whereby all remaining spiked plasma solutions were added to the incubator for the duration of the study.
Cells were then loaded with 120 μL of the plasma samples and dialyzed against an equal volume of dialysis buffer (PBS). […] At the end of incubation, the lid was removed and 50 μL of post-dialysis samples were removed from both buffer and plasma solution chambers into a separate 96-well plate for analysis. The plasma solutions (50 μL) were then added to the buffer samples along with an equal volume of PBS (50 μL) to the collected plasma solution samples. The plate was shaken at 1,000 rpm for 2 min and 400 μL of acetonitrile containing an appropriate internal standard was added to precipitate protein and release compound. The samples were then vortexed at 1,000 rpm for an additional 10 min followed by centrifugation at 3,220 g for 30 min. Supernatant (250 μL) was then added to a new 96-well plate and centrifuged again at 3,220 g for 30 min and 100 μL of this supernatant was then added to a new 96-well plate for analysis. The samples were analyzed by LC-MS/MS and 100 μL of distilled water was added to each sample prior to analysis.
Concentrations of test compounds and control compound in buffer and plasma solution chambers was determined and percentages of test compounds and control compound bound using the following equations (mean of n=2 replicates): […]

BCR-ABL1 Q252H = target: T1, BCR-ABL1 Q252H (Homo sapiens, UniProt P00519, Q252H); test: KinaseProfiler radiometric kinase assay, BCR-ABL1 Q252H; type: biochemical; conditions: [ATP] = 10 μM; mean of n = 2
T1 construct: BCR (fusion partner, as the printed name BCR-ABL1 says)

Caco-2 cells = test: Caco-2 permeability; conditions: Papp (b − a/a − b)
Method: Caco-2 Permeability (Independently Performed by Pharmaron Inc., Ningbo, CN)
To each well of the Transwell insert and reservoir were added 50 μL and 25 mL of cell culture medium, respectively. […] Following this, the Caco-2 plate was removed from the incubator and the monolayer washed twice with pre-warmed HBSS (10 mM HEPES, pH 7.4).
To determine the rate of drug transport in the apical to basolateral direction, 125 μL of the working solution of either test compounds or control compounds was added to the Transwell insert (apical compartment) and a 50 μL sample was immediately transported from the apical compartment to 200 μL of acetonitrile containing internal standard (100 nM alprazolam, 200 nM Caffeine and 100 nM tolbutamide) in a new 96-well plate as the initial donor sample (A-B). The sample was then vortexed at 1,000 rpm for 10 min. The receiver plate (basolateral compartment) wells were then filled with 235 μL of transport buffer. To determine the rate of drug transport in the basolateral to apical direction, 285 μL of the working solution of either test compounds or control compounds was added to the receiver plate wells (basolateral compartment) and a 50 μL sample was immediately transferred from the basolateral compartment to 200 μL of acetonitrile containing internal standard in a new 96-well plate as the initial donor sample (B-A). The sample was vortexed at 1,000 rpm for 10 min. The Transwell insert (apical compartment) was then filled with 75 μL of transport buffer and the apical to basolateral direction and the basolateral to apical direction were done at the same time. […] After incubation, 50 μL samples from donor sides (apical compartment for Ap→BI flux, and basolateral compartment for BI→Ap) and receiver sides (basolateral compartment for Ap→BI flux, and apical compartment for BI→Ap) were transferred to wells of a new 96-well plate, followed by the addition of 200 μL acetonitrile containing internal standard. All samples were vortexed for 10 min and then centrifuged at 3,220 g for 40 min. A 150 μL aliquot of the supernatant was then mixed with an appropriate volume of ultra-pure water prior to LC-MS/MS analysis.
(§1) To monitor for monolayer integrity, Lucifer yellow leakage was determined after the 2 h transport period. This began by preparing a stock solution of Lucifer yellow in DMSO which was diluted with HBSS (10 mM HEPES, pH 7.4.) to reach a final concentration of 100 μM. To each Transwell insert (apical compartment) was then added 100 μL of the Lucifer yellow solution, followed by filling the wells in the receiver plate (basolateral compartment) with 300 μL of HBSS (10 mM HEPES, pH 7.4).
(§2) The efflux ratio was determined using the following equation: […]

BCR-ABL1 M351T = target: T2, BCR-ABL1 M351T (Homo sapiens, UniProt P00519, M351T); test: KinaseProfiler radiometric kinase assay, BCR-ABL1 M351T; type: biochemical; conditions: [ATP] = 10 μM; mean of n = 2
T2 construct: BCR (fusion partner, as the printed name BCR-ABL1 says)

mutant BCR-ABL1 = test: KinaseProfiler radiometric kinase assay, mutant BCR-ABL1 kinases as a group; type: biochemical, human
Source text: Biochemical Human RTK Kinase Enzymatic Radiometric Assay, KinaseProfiler (Independently Performed by Eurofins Cerep SA, FR)

MDCKII-MDR1 cells = test: MDCKII-MDR1 permeability; conditions: MDCKII-MDR1
Method: MDCKII-MDR1 Permeability (Independently Performed By: Pharmaron Inc., Ninqbo, CN)
To each well of the Transwell insert and reservoir were added 50 μL and 25 mL of cell culture medium, respectively.
To determine the rate of drug transport in the apical to basolateral direction, 125 μL of the working solution of either test compounds or control compounds was added to the Transwell insert (apical compartment) and a 50 μL sample was immediately transferred from the apical compartment to 200 μL of acetonitrile containing internal standard (100 nM alprazolam, 200 nM caffeine, and 100 nM tolbutamide) in a new 96-well plate as the initial donor sample (A-B). The sample was then vortexed at 1,000 rpm for 10 min. The receiver plate (basolateral compartment) wells were then filled with 235 μL transport buffer. To determine the rate of drug transport in the basolateral to apical direction, 285 μL of the working solution of either test compounds or control compounds was added to the receiver plate (basolateral compartment) wells and a 50 μL of sample was immediately transferred from the basolateral compartment to 200 μL of acetonitrile containing internal standard in a new 96-well plate as the initial donor sample (B-A). The sample was vortexed for 10 min at 1,000 rpm. The Transwell insert (apical compartment) was then filled with 75 μL of transport buffer and the apical to basolateral direction and the basolateral to apical direction were done at the same time. […] After incubation, 50 μL samples from donor sides (apical compartment for Ap→BI flux, and basolateral compartment BI→Ap) and receiver sides (basolateral compartment for Ap→BI flux, and apical compartment for BI→Ap) were transferred to wells of a new 96-well plate, followed by the addition of 200 μL acetonitrile containing internal standard. […] An aliquot of 100 μL of the supernatant was mixed with an appropriate volume of ultra-pure water before LC-MS/MS analysis.
as §1, with “and” for “which was”
as §2

hERG channel = hERG channel (Homo sapiens, UniProt Q12809); parameters: expressed in transfected cells; host or cells: HEK 293; conditions: cited from earlier work
Chain of hERG channel (Q12809 whole entry): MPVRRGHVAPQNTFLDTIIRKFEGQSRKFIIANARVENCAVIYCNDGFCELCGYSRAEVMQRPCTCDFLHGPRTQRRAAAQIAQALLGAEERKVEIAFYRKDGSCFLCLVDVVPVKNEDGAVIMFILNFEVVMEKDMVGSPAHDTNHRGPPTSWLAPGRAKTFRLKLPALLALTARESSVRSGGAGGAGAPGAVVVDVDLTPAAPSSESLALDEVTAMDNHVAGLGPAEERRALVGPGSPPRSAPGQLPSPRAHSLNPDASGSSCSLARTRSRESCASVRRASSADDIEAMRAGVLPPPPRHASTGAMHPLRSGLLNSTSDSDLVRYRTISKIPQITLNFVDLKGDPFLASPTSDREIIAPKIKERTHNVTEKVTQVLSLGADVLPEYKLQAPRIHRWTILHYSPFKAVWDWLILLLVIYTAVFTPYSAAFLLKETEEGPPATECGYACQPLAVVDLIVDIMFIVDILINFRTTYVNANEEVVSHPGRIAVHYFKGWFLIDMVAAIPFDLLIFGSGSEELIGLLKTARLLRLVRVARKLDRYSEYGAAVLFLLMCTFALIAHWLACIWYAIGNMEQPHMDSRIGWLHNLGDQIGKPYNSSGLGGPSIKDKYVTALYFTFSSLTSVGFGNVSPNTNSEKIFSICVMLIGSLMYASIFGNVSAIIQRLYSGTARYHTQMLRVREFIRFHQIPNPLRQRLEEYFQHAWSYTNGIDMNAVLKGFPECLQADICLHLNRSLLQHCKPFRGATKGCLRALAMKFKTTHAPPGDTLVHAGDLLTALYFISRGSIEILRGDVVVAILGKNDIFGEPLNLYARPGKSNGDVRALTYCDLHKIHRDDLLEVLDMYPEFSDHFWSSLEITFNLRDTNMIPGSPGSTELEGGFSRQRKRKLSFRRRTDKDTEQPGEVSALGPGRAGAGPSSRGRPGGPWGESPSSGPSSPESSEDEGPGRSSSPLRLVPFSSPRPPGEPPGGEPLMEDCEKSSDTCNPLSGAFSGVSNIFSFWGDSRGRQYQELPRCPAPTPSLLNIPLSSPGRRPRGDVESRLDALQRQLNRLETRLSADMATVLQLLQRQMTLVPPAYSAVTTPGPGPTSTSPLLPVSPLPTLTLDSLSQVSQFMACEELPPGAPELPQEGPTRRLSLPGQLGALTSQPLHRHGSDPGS

[4] = Metabolic stability in mouse hepatocytes; type: in vitro ADME; conditions: read-out: Remaining Percentages
Method: All calculations were carried out using Microsoft Excel. Peak areas were determined from extracted ion chromatograms.

O=C(Nc1ccc(OC(F)(F)Cl)cc1)c1cnc(N2CC[C@@H](O)C2)c(-c2ccn[nH]2)c1 [Asciminib, asciminib]
efflux transporter substrate (background) [1]: P-gp substrates; also recorded: potent substrates for efflux transporters

COc1cc2c(Nc3cccc(Cl)c3F)c(C#N)cnc2cc1OCCON1CCN(C)CC1 [Compound 16, 4-((3-Chloro-2-flurophenyl)amino)-6-methoxy-7-(2-((4-methylpiperazin-1-yl)oxy)ethoxy)quinoline-3-carbonitrile]
remaining at 0.5 min [2]: 100%
remaining at 0.5 h [2]: 66.9%
remaining at 1 h [2]: 45.1%
remaining at 2 h [2]: 18.6%

COc1cc2c(Nc3cccc(OC)c3F)c(C#N)cnc2cc1OCCON1CCN(C)CC1 [Compound 18, 4-((2-Fluoro-3-methoxyphenyl)amino)-6-methoxy-7-(2-((4-methylpiperazin-1-yl)oxy)ethoxy)quinoline-3-carbonitrile]
IC50 (cSRC): 34 nM
% Unbound [3]: 12.97%
IC50 (BCR-ABL1 Q252H): 30 nM
remaining at 0.5 min [2]: 100%
remaining at 0.5 h [2]: 95.7%
remaining at 1 h [2]: 80.4%
remaining at 2 h [2]: 54.9%
Efflux Ratio (Caco-2 cells): 12.36
IC50 (BCR-ABL1 M351T): 24 nM
IC50 (mutant BCR-ABL1; read-out: IC50 against (imatinib resistant / relevant) mutant BCR-ABL1 kinases, group of mutants): ≥ 15 nM

COc1cc(Nc2c(C#N)cnc3cc(OCCON4CCN(C)CC4)c(OC)cc23)ccc1Cl [Compound 19]
IC50 (cSRC): 2 nM
efflux (P-gp), in words (MDCKII-MDR1 cells): reduced efflux ratios
permeability in MDCKII-MDR1 cells, in words (MDCKII-MDR1 cells): markedly improved permeability
stability in hepatocytes, in words [2]: good stability in human hepatocytes
remaining at 0.5 min [2]: 100%
remaining at 0.5 h [2]: 68.1%
remaining at 1 h [2]: 50.2%
remaining at 2 h [2]: 25.5%
IC50 (BCR-ABL1 M351T): 1 nM

COc1cc2c(Nc3ccc(Cl)c(OC)n3)c(C#N)cnc2cc1OCCON1CCN(C)CC1 [Compound 21, 4-((5-Chloro-6-methoxypyridin-2-yl)amino)-6-methoxy-7-(2-((4-methylpiperazin-1-yl)oxy)ethoxy)quinoline-3-carbonitrile]
cSRC kinase activity, in words (cSRC): excellent activity
BCR-ABL1 kinase activity, in words (mutant BCR-ABL1): excellent activity

Cc1nc(Nc2ncc(C(=O)Nc3c(C)cccc3Cl)s2)cc(N2CCN(CCO)CC2)n1 [Dasatinib, dasatinib]
hERG liability, in words (background) (hERG channel): reduced affinity for the hERG ion channel
efflux transporter substrate (background) [1]: P-gp substrates; also recorded: potent substrates for efflux transporters

CC(=O)N1CCN(c2ccc(OCC3COC(Cn4ccnc4)(c4ccc(Cl)cc4Cl)O3)cc2)CC1 (stereo not shown) [Ketoconazole]
% Unbound [3]: 0.80%
fraction unbound at 6 h, 5 µM ([3]; read-out: % Bound (converted)): 0.008

Cc1cn(-c2cc(NC(=O)c3ccc(C)c(Nc4nccc(-c5cccnc5)n4)c3)cc(C(F)(F)F)c2)cn1 [Nilotinib, nilotinib]
hERG liability, in words (background) (hERG channel): inhibition of the human Ether-b-go-go-Related Gene (hERG) potassium ion channel

COc1ccc(CCN(C)CCCC(C#N)(c2ccc(OC)c(OC)c2)C(C)C)cc1OC (stereo not shown) [Verapamil, reference compound]
remaining at […] ([4]; 15 min): 16.7%
remaining at 0.5 h ([4]; 30 min): 4.39%
remaining at 1 h ([4]; 60 min): 1.24%
remaining at 0.5 h [2]: 35.6%
remaining at 1 h [2]: 17.7%
remaining at 2 h [2]: 4.83%
